ChEMBL document CHEMBL1201862, “PubChem BioAssay data set” (2004)
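Cells were grown in 96-well plates and exposed to each compound for 48 hours at five concentrations; endpoints were interpolated linearly between bracketing concentrations, or set to the highest concentration if not reached. GI50: concentration for 50% inhibition of growth.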 Calls of active or inactive are those of the source. Cut-off read from the data, not from the text of the source: active = GI50 up to about 1.1 µM and inactive = higher.

Assays:
Experiment in all cases: inhibition of tumour cell growth, NCI panel, 48 h
ACHN = system: ACHN
Malme-3M = system: Malme-3M
HOP-18 = system: HOP-18
NCI-H522 = system: NCI-H522
COLO 205 = system: COLO 205
NCI-H23 = system: NCI-H23
SF-539 = system: SF-539
NCI-H460 = system: NCI-H460
OVCAR-8 = system: OVCAR-8
HCC 2998 = system: HCC 2998
HCT-116 = system: HCT-116
BT-549 = system: BT-549
HL-60 = system: HL-60
UO-31 = system: UO-31
SF-295 = system: SF-295
SK-MEL-28 = system: SK-MEL-28
MDA-MB-435 = system: MDA-MB-435
KM12 = system: KM12
SN12C = system: SN12C
MCF7 = system: MCF7
Hs-578T = system: Hs-578T
M14 = system: M14
SNB-19 = system: SNB-19
CCRF-CEM = system: CCRF-CEM
TK-10 = system: TK-10
UACC-257 = system: UACC-257
MDA-MB-231 = system: MDA-MB-231
OVCAR-3 = system: OVCAR-3
SK-MEL-2 = system: SK-MEL-2
786-0 = system: 786-0
UACC-62 = system: UACC-62
RPMI-8226 = system: RPMI-8226
EKVX = system: EKVX
SR = system: SR
SW-620 = system: SW-620
HCT-15 = system: HCT-15
SNB-75 = system: SNB-75
MDA-N = system: MDA-N
DU-145 = system: DU-145
OVCAR-5 = system: OVCAR-5
NCI/ADR-RES = system: NCI/ADR-RES
PC-3 = system: PC-3
M19-MEL = system: M19-MEL
A549 = system: A549
HOP-92 = system: HOP-92
SK-OV-3 = system: SK-OV-3
LXFL 529 = system: LXFL 529
IGROV-1 = system: IGROV-1
U-251 = system: U-251
HOP-62 = system: HOP-62
SF-268 = system: SF-268
K562 = system: K562
HT-29 = system: HT-29
SK-MEL-5 = system: SK-MEL-5
A498 = system: A498
NCI-H226 = system: NCI-H226
OVCAR-4 = system: OVCAR-4
MOLT-4 = system: MOLT-4
RXF 393 = system: RXF 393
SNB-78 = system: SNB-78
DMS-114 = system: DMS-114
DMS-273 = system: DMS-273
DLD-1 = system: DLD-1
CAKI-1 = system: CAKI-1

COc1cc(C2c3cc4c(cc3[C@@H](NCCCN3CCCC3=O)C3COC(=O)[C@H]23)OCO4)cc(OC)c1O (stereo partly specified)
GI50 (ACHN): 2.92 µM (inactive)
GI50 (Malme-3M): 0.405 µM (active)
GI50 (HOP-18): > 17.5 µM (inactive)
GI50 (NCI-H522): 0.319 µM (active)
GI50 (COLO 205): 4.17 µM (inactive)
GI50 (NCI-H23): 0.515 µM (active)
GI50 (SF-539): 0.393 µM (active)

CCOC(=O)C1=C(N)N(c2ccccc2)/C(=C2\SC(=S)N(c3ccc(C)cc3)C2=O)S1
GI50 (NCI-H460): 75.2 µM (inactive)
GI50 (OVCAR-8): 33.3 µM (inactive)
GI50 (HCC 2998): 50.1 µM (inactive)
GI50 (HCT-116): 63.2 µM (inactive)
GI50 (BT-549): 90.2 µM (inactive)
GI50 (HL-60): 71.6 µM (inactive)
GI50 (ACHN): 76 µM (inactive)
GI50 (UO-31): 68.2 µM (inactive)
GI50 (SF-295): 21 µM (inactive)
GI50 (SK-MEL-28): 23.4 µM (inactive)
GI50 (MDA-MB-435): > 100 µM (inactive)
GI50 (KM12): > 100 µM (inactive)
GI50 (SN12C): 35.8 µM (inactive)
GI50 (MCF7): 87.5 µM (inactive)
GI50 (Hs-578T): 25 µM (inactive)
GI50 (M14): > 100 µM (inactive)
GI50 (SNB-19): 29.7 µM (inactive)
GI50 (Malme-3M): 51.1 µM (inactive)
GI50 (CCRF-CEM): 54.2 µM (inactive)
GI50 (TK-10): 48.4 µM (inactive)
GI50 (HOP-18): 45.2 µM (inactive)
GI50 (UACC-257): 42.3 µM (inactive)
GI50 (MDA-MB-231): 22.6 µM (inactive)
GI50 (OVCAR-3): 27.9 µM (inactive)
GI50 (SK-MEL-2): 73.3 µM (inactive)
GI50 (786-0): 29.3 µM (inactive)
GI50 (UACC-62): 88.7 µM (inactive)
GI50 (RPMI-8226): 93.1 µM (inactive)
GI50 (NCI-H522): 34.3 µM (inactive)
GI50 (EKVX): > 100 µM (inactive)
GI50 (SR): > 100 µM (inactive)
GI50 (SW-620): > 100 µM (inactive)
GI50 (HCT-15): > 100 µM
GI50 (SNB-75): 3.99 µM (inactive)
GI50 (MDA-N): > 100 µM (inactive)
GI50 (DU-145): 89.9 µM (inactive)
GI50 (OVCAR-5): 61.9 µM (inactive)
GI50 (NCI/ADR-RES): 50.5 µM (inactive)
GI50 (PC-3): 51.4 µM (inactive)
GI50 (M19-MEL): > 100 µM (inactive)
GI50 (A549): 52.1 µM (inactive)
GI50 (HOP-92): 30.5 µM (inactive)
GI50 (SK-OV-3): 26.9 µM (inactive)
GI50 (LXFL 529): 59.2 µM (inactive)
GI50 (COLO 205): > 100 µM (inactive)
GI50 (IGROV-1): > 100 µM (inactive)
GI50 (U-251): 29.6 µM (inactive)
GI50 (HOP-62): 22.2 µM (inactive)
GI50 (SF-268): 29.5 µM (inactive)
GI50 (NCI-H23): 47.4 µM (inactive)
GI50 (K562): 36.8 µM (inactive)
GI50 (HT-29): 47.3 µM (inactive)
GI50 (SK-MEL-5): 54.8 µM (inactive)
GI50 (SF-539): 14.8 µM (inactive)
GI50 (A498): 31.4 µM (inactive)
GI50 (NCI-H226): 33.6 µM (inactive)
GI50 (OVCAR-4): 18 µM (inactive)
GI50 (MOLT-4): 60.8 µM (inactive)

COc1cc(O)c2c(c1C)C(C)(O)c1c(C)coc1C2=O (stereo unspecified)
GI50 (NCI-H460): > 100 µM (inactive)
GI50 (OVCAR-8): > 100 µM (inactive)
GI50 (HCT-116): > 100 µM (inactive)
GI50 (HL-60): 57.7 µM (inactive)
GI50 (ACHN): > 100 µM (inactive)
GI50 (UO-31): > 100 µM (inactive)
GI50 (SF-295): > 100 µM (inactive)
GI50 (SK-MEL-28): > 100 µM (inactive)
GI50 (KM12): > 100 µM (inactive)
GI50 (M14): > 100 µM (inactive)
GI50 (SNB-19): > 100 µM (inactive)
GI50 (RXF 393): > 100 µM (inactive)
GI50 (TK-10): > 100 µM (inactive)
GI50 (UACC-257): > 100 µM (inactive)
GI50 (SNB-78): > 100 µM (inactive)
GI50 (UACC-62): 74.1 µM (inactive)
GI50 (EKVX): > 100 µM (inactive)
GI50 (SR): > 100 µM (inactive)
GI50 (OVCAR-5): > 100 µM (inactive)
GI50 (M19-MEL): > 100 µM (inactive)
GI50 (A549): > 100 µM (inactive)
GI50 (HOP-92): > 100 µM (inactive)
GI50 (SK-OV-3): > 100 µM (inactive)
GI50 (IGROV-1): > 100 µM (inactive)
GI50 (U-251): > 100 µM (inactive)
GI50 (HOP-62): > 100 µM (inactive)
GI50 (NCI-H23): > 100 µM (inactive)
GI50 (HT-29): > 100 µM (inactive)
GI50 (DMS-114): > 100 µM (inactive)
GI50 (A498): 89.7 µM (inactive)
GI50 (NCI-H226): 99.8 µM (inactive)

COC(=O)CN1CCS/C1=N/C#N
GI50 (NCI-H460): > 100 µM (inactive)
GI50 (HL-60): > 100 µM (inactive)
GI50 (UO-31): > 100 µM (inactive)
GI50 (SK-MEL-28): > 100 µM (inactive)
GI50 (KM12): > 100 µM (inactive)
GI50 (M14): > 100 µM (inactive)
GI50 (SNB-19): > 100 µM (inactive)
GI50 (RXF 393): > 100 µM (inactive)
GI50 (CCRF-CEM): > 100 µM (inactive)
GI50 (TK-10): > 100 µM (inactive)
GI50 (SNB-78): > 100 µM (inactive)
GI50 (UACC-62): > 100 µM (inactive)
GI50 (NCI-H522): > 100 µM (inactive)
GI50 (EKVX): > 100 µM (inactive)
GI50 (SR): > 100 µM (inactive)
GI50 (OVCAR-5): > 100 µM (inactive)
GI50 (DMS-273): > 100 µM (inactive)
GI50 (A549): > 100 µM (inactive)
GI50 (HOP-92): > 100 µM (inactive)
GI50 (SK-OV-3): > 100 µM (inactive)
GI50 (IGROV-1): > 100 µM (inactive)
GI50 (U-251): > 100 µM (inactive)
GI50 (HOP-62): > 100 µM (inactive)
GI50 (SF-268): > 100 µM (inactive)
GI50 (NCI-H23): > 100 µM (inactive)
GI50 (K562): > 100 µM (inactive)
GI50 (HT-29): > 100 µM (inactive)
GI50 (A498): > 100 µM (inactive)
GI50 (NCI-H226): > 100 µM (inactive)
GI50 (MOLT-4): > 100 µM (inactive)

COc1ccc(C2[C@@H](Cl)C(=O)N2c2ccc(OC)cc2)cc1 (stereo partly specified)
GI50 (NCI-H460): 51.4 µM (inactive)
GI50 (OVCAR-8): 46.2 µM (inactive)
GI50 (HCC 2998): > 100 µM (inactive)
GI50 (HCT-116): 18.6 µM (inactive)
GI50 (HL-60): 20.4 µM (inactive)
GI50 (ACHN): 41.8 µM (inactive)
GI50 (UO-31): 56.8 µM (inactive)
GI50 (SF-295): 28.7 µM (inactive)
GI50 (SK-MEL-28): > 100 µM (inactive)
GI50 (KM12): > 100 µM (inactive)
GI50 (DLD-1): 89.5 µM (inactive)
GI50 (SN12C): > 100 µM (inactive)
GI50 (SNB-19): 45.5 µM (inactive)
GI50 (Malme-3M): 45.9 µM (inactive)
GI50 (RXF 393): 22.4 µM (inactive)
GI50 (CCRF-CEM): 39.1 µM (inactive)
GI50 (TK-10): > 100 µM (inactive)
GI50 (UACC-257): 46 µM (inactive)
GI50 (SNB-78): > 100 µM (inactive)
GI50 (OVCAR-3): 93.1 µM (inactive)
GI50 (SK-MEL-2): 62.5 µM (inactive)
GI50 (786-0): 36.6 µM (inactive)
GI50 (UACC-62): 33.6 µM (inactive)
GI50 (RPMI-8226): 98.6 µM (inactive)
GI50 (NCI-H522): 36 µM (inactive)
GI50 (EKVX): > 100 µM (inactive)
GI50 (SR): 40.5 µM (inactive)
GI50 (SW-620): > 100 µM (inactive)
GI50 (SNB-75): 15.1 µM (inactive)
GI50 (OVCAR-5): > 100 µM (inactive)
GI50 (DMS-273): 62.7 µM (inactive)
GI50 (M19-MEL): 50.5 µM (inactive)
GI50 (A549): > 100 µM (inactive)
GI50 (CAKI-1): 30.4 µM (inactive)
GI50 (HOP-92): 11.6 µM (inactive)
GI50 (SK-OV-3): 23.1 µM (inactive)
GI50 (LXFL 529): 62.8 µM (inactive)
GI50 (COLO 205): > 100 µM (inactive)
GI50 (IGROV-1): > 100 µM (inactive)
GI50 (U-251): > 100 µM (inactive)
GI50 (SF-268): > 100 µM (inactive)
GI50 (NCI-H23): > 100 µM (inactive)
GI50 (K562): 19.5 µM (inactive)
GI50 (HT-29): > 100 µM (inactive)
GI50 (SK-MEL-5): > 100 µM (inactive)
GI50 (DMS-114): 53 µM (inactive)
GI50 (SF-539): 19.8 µM (inactive)
GI50 (A498): 12.2 µM (inactive)
GI50 (NCI-H226): > 100 µM (inactive)
GI50 (MOLT-4): 35.9 µM (inactive)
